Read-outs that look alike come from different tables or passages of the source. Numbered stars: 1 amine (or outer) side, 2 acyl side, 3 side chain; on linkers, the order of the positions; unused ones are H or OH. Square brackets hold non-standard residues; d marks the D form. Peptide text beside a SMILES is read from it. MeBmt = C/C=C/C[C@@H](C)[C@@H](O)[C@H](NC)C(=O)O; X1 = C[C@@H](O)[C@@](C)(C(=O)[*:2])N(C)[*:1]; NMeL = CN[C@@H](CC(C)C)C(=O)O; NMeV = CN[C@H](C(=O)O)C(C)C; NMeAbu = CC[C@H](NC)C(=O)O; Abu = CC[C@H](N)C(=O)O; Dha = C=C(N)C(=O)O; Sar = CNCC(=O)O
Tests used:
[1] = biological target: cyclophilin A (Homo sapiens, UniProt P62937); experiment: Inhibition of peptidyl-prolyl isomerase (rotamase) activity of cyclophilin, chymotrypsin-coupled assay; assay type: biochemical
cyclophilin A, sequence (P62937 whole entry, species assumed): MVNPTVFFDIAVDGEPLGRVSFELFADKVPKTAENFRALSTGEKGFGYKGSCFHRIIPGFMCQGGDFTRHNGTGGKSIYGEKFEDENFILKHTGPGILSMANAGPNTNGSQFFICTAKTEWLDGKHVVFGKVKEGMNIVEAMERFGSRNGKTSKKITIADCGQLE
Method: We evaluated the potencies of drugs in binding to cyclophilin A by examining inhibition of peptidyl prolyl-isomerase activity (Table 1).
The inhibition of this reaction caused by the addition of different concentrations of inhibitor is determined, and the data is analyzed as a change in first-order rate constant as a function of inhibitor concentration to yield the apparent Ki values. The absorbance at 390 nm versus time is monitored for 90 sec using a spectrophotometer and the rate constants are determined from the absorbance versus. time data files.

[2] = system: chick dorsal root ganglia explants; experiment: Chick dorsal root ganglion cultures and neurite outgrowth; assay type: cell-based; conditions: for Neurotrophic Potency, Neurite Outgrowth in Chick DRG: relative to cyclosporin A, 48 hours after drug treatment
[3] = system: PC12 cells and sensory neurons, namely dorsal root ganglion cells (DRGS); conditions: picomolar concentrations; cited from earlier work
[4] = apparent Ki, substrate N-succinyl-Ala-Ala-Pro-Phe-p-nitroanilide, read-out: Ki, cyclophilin inhibition

**Q.** Which Ki [1, 4] does the source give for `CCCC[C@@H](C)[C@@H](O)[C@H]1C(=O)N[C@@H](CC)C(=O)N(C)CC(=O)N(C)[C@@H](CC(C)C)C(=O)N[C@@H](C(C)C)C(=O)N(C)[C@@H](CC(C)C)C(=O)N[C@@H](C)C(=O)N[C@H](C)C(=O)N(C)[C@@H](CC(C)C)C(=O)N(C)[C@@H](CC(C)C)C(=O)N(C)[C@@H](C(C)C)C(=O)N1C` [Example 2, dihydro-CsA] here?
**A.** 100 nM

**Q.** And the “Neurotrophic Potency, Neurite Outgrowth in Chick DRG” value (from here on “Neurotrophic Potency”) [2]?
**A.** +

**Q.** With `C=C1NC(=O)[C@H](C)NC(=O)[C@H](CC(C)C)N(C)C(=O)[C@H](C(C)C)NC(=O)[C@H](CC(C)C)N(C)C(=O)CN(C)C(=O)[C@H](CC)NC(=O)[C@H]([C@H](O)[C@H](C)C/C=C/C)N(C)C(=O)[C@H](C(C)C)N(C)C(=O)[C@H](CC(C)C)N(C)C(=O)[C@H](CC(C)C)N(C)C1=O` [Example 3, [dehydro-Ala]^8-CsA] (cyclo(A[Dha][NMeL][NMeL][NMeV][MeBmt][Abu][Sar][NMeL]V[NMeL])) as the compound, how does the Ki [1, 4] read?
**A.** 75 nM

**Q.** What about the “Neurotrophic Potency” value [2] of the same compound?
**A.** +

**Q.** Which results are given for `C/C=C/C[C@@H](C)[C@@H](O)[C@H]1C(=O)N[C@@H](CC)C(=O)N(C)CC(=O)N(C)[C@@H](C(C)C)C(=O)N[C@@H](C(C)C)C(=O)N(C)[C@@H](CC(C)C)C(=O)N[C@@H](C)C(=O)N[C@H](C)C(=O)N(C)[C@@H](CC(C)C)C(=O)N(C)[C@@H](CC(C)C)C(=O)N(C)[C@@H](C(C)C)C(=O)N1C` [Example 4, [MeVal]^4-CsA] (cyclo([MeBmt][Abu][Sar][NMeV]V[NMeL]A[dA][NMeL][NMeL][NMeV]))?
**A.** Ki [1]: 10 nM; Neurotrophic Potency, Neurite Outgrowth in Chick DRG [2]: +++

**Q.** For `C/C=C/C[C@@H](C)[C@@H](O)[C@H]1C(=O)N[C@@H](CC)C(=O)N(C)CC(=O)N(C)[C@@H](CC)C(=O)N[C@@H](C(C)C)C(=O)N(C)[C@@H](CC(C)C)C(=O)N[C@@H](C)C(=O)N[C@H](C)C(=O)N(C)[C@@H](CC(C)C)C(=O)N(C)[C@@H](CC(C)C)C(=O)N(C)[C@@H](C(C)C)C(=O)N1C` [Example 5, [Me-homoAla]^4-CsA] (cyclo([MeBmt][Abu][Sar][NMeAbu]V[NMeL]A[dA][NMeL][NMeL][NMeV])), which “Neurotrophic Potency” value [2] is on record?
**A.** +++

**Q.** For `C/C=C/C[C@@H](C)[C@@H](O)[C@H]1C(=O)N[C@@H](CC)C(=O)N(C)CC(=O)N(C)[C@@](C)([C@@H](C)O)C(=O)N[C@@H](C(C)C)C(=O)N(C)[C@@H](CC(C)C)C(=O)N[C@@H](C)C(=O)N[C@H](C)C(=O)N(C)[C@@H](CC(C)C)C(=O)N(C)[C@@H](CC(C)C)C(=O)N(C)[C@@H](C(C)C)C(=O)N1C` [Example 6, [Me-(a-methyl)Thr]^4-CsA] (cyclo([MeBmt][Abu][Sar][X1]V[NMeL]A[dA][NMeL][NMeL][NMeV])), which “Neurotrophic Potency” value [2] is on record?
**A.** +++

**Q.** What does the source list for “cyclosporin A [Example 1, reference compound]”?
**A.** neurite outgrowth [3]: stimulates neurite out growth; EC50 ([2]; chick DRG explants, from dose-response curves (FIG. 1), read-out: ED50, the dose at which 50% of the maximal response was elicited (neurite outgrowth)): 50 nM; Neurotrophic Potency, Neurite Outgrowth in Chick DRG [2]: +++
